The values that follow come from PMC3821045 (Synapse (New York, N.Y.), 2010).

Entries after “also recorded” stand apart in the source; their conditions may differ.

Sequence of human D2 dopamine receptors (P14416 whole entry): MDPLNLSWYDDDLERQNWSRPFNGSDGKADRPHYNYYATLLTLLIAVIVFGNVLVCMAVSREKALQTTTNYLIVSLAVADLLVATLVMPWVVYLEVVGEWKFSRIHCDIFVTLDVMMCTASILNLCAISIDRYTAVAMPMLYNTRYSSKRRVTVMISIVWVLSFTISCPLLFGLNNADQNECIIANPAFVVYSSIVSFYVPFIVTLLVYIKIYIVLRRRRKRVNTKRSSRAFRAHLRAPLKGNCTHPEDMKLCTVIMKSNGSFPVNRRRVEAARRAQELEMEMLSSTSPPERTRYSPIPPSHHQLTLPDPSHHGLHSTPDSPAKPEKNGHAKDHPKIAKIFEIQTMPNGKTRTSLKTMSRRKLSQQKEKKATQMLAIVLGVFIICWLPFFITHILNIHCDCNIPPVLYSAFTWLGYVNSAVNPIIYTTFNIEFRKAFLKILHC

One assay concerns the target human D2 dopamine receptors (Homo sapiens, UniProt P14416). Put plainly: Forskolin-dependent adenylyl cyclase inhibition assay. Format: cell-based.
Details: not given
On to `O=C(NCCCCN1CCN(c2cccc(Cl)c2Cl)CC1)c1ccc(-c2cccnc2)cc1` [PG01042, N-(4-(4-(2,3-dichlorophenyl)piperazin-1-yl)butyl)-4-(pyridin-3-yl)benzamide], for which the “efficacy in adenylyl cyclase inhibition assay (in words)” value is “weak partial agonist”.
With `O=C(NCCCCN1CCN(c2cccc(Cl)c2Cl)CC1)c1ccc(-c2ccccn2)cc1` [CJB090, N-(4-(4-(2,3-dichlorophenyl)piperazin-1-yl)butyl)-4-(pyridin-2-yl)benzamide], the “efficacy in adenylyl cyclase inhibition assay (in words)” value was “partial agonist”.

The target of a further assay is human D3 dopamine receptors (Homo sapiens, UniProt P35462). The description is as above. Format: cell-based.
Sequence of human D3 dopamine receptors (P35462 whole entry): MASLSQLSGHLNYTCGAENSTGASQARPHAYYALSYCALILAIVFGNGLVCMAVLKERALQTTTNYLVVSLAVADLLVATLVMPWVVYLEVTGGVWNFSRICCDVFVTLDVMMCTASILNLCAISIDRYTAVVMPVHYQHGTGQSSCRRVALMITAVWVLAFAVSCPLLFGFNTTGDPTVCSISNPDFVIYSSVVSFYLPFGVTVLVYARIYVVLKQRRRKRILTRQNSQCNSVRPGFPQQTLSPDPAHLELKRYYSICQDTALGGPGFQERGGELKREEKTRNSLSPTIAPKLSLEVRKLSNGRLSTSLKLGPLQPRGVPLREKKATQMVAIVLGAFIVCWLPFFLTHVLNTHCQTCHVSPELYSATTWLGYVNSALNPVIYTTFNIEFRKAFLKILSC
Details: not given
As to `COc1ccccc1N1CCN(CCCCNC(=O)c2ccc(-c3cccnc3)cc2)CC1` [PG 848, N-(4-(4-(2-methoxyphenyl)piperazin-1-yl)butyl)-4-(pyridin-3-yl)benzamide], the “efficacy in adenylyl cyclase inhibition assay (in words)” value was “greatest efficacy”.
With `COc1ccccc1N1CCN(C/C=C/CNC(=O)c2ccc(-c3cccnc3)cc2)CC1` [PG 845, (E)-N-(4-(4-(2-methoxyphenyl)piperazin-1-yl)but-2-enyl)-4-(pyridin-3-yl)benzamide], the “efficacy in adenylyl cyclase inhibition assay (in words)” value is reported as “greatest efficacy”.
In the case of `O=C(NCCCCN1CCN(c2cccc(Cl)c2Cl)CC1)c1ccc(-c2cccnc2)cc1` [PG01042, N-(4-(4-(2,3-dichlorophenyl)piperazin-1-yl)butyl)-4-(pyridin-3-yl)benzamide], the “efficacy in adenylyl cyclase inhibition assay (in words)” value was “strong agonist; also recorded: almost full agonist”.
The same measure, in the same setting: the value for `O=C(NCCCCN1CCN(c2cccc(Cl)c2Cl)CC1)c1ccc(-c2ccccn2)cc1` [CJB090, N-(4-(4-(2,3-dichlorophenyl)piperazin-1-yl)butyl)-4-(pyridin-2-yl)benzamide] was “partial agonist”; that for `O=C(NCCCCN1CCN(c2cccc(Cl)c2Cl)CC1)c1ccc2c(c1)Cc1ccccc1-2` [NGB 2904, reference compound] was “antagonist”.

The next assay deals with human D2 receptors expressed in CHO cells (Homo sapiens, UniProt P14416). Put plainly: Mitogenic assay. Format: cell-based. The following applies: relative to quinpirole.
Sequence of human D2 receptors expressed in CHO cells (P14416 whole entry): as the sequence (P14416 whole entry) above
Consider `COc1ccccc1N1CCN(CCCCNC(=O)c2ccc(-c3cccnc3)cc2)CC1` [PG 848, N-(4-(4-(2-methoxyphenyl)piperazin-1-yl)butyl)-4-(pyridin-3-yl)benzamide], for which the “intrinsic efficacy in mitogenic assay (in words)” value (“intrinsic efficacy” for short) is on record as “antagonist”.
For `O=C(NCCCCN1CCN(c2cccc(Cl)c2Cl)CC1)c1ccc(-c2cccnc2)cc1` [PG01042, N-(4-(4-(2,3-dichlorophenyl)piperazin-1-yl)butyl)-4-(pyridin-3-yl)benzamide], the “intrinsic efficacy” value is given as “partial mitogenic agonist”.
In the case of `O=C(NCCCCN1CCN(c2cccc(Cl)c2Cl)CC1)c1ccc(-c2ccccn2)cc1` [CJB090, N-(4-(4-(2,3-dichlorophenyl)piperazin-1-yl)butyl)-4-(pyridin-2-yl)benzamide], the “intrinsic efficacy” value is listed as “some activity”.

Another assay deals with human D3 receptors expressed in CHO cells (Homo sapiens, UniProt P35462). Put plainly: Mitogenic assay. Conditions: relative to quinpirole. Type of assay: cell-based.
Sequence of human D3 receptors expressed in CHO cells (P35462 whole entry): as the sequence (P35462 whole entry) above
Take `COc1ccccc1N1CCN(CCCCNC(=O)c2ccc(-c3cccnc3)cc2)CC1` [PG 848, N-(4-(4-(2-methoxyphenyl)piperazin-1-yl)butyl)-4-(pyridin-3-yl)benzamide]: the “intrinsic efficacy” value is reported as “antagonist”.
In the case of `O=C(NCCCCN1CCN(c2cccc(Cl)c2Cl)CC1)c1ccc(-c2cccnc2)cc1` [PG01042, N-(4-(4-(2,3-dichlorophenyl)piperazin-1-yl)butyl)-4-(pyridin-3-yl)benzamide], the “intrinsic efficacy” value was “partial mitogenic agonist”.
Consider `O=C(NCCCCN1CCN(c2cccc(Cl)c2Cl)CC1)c1ccc(-c2ccccn2)cc1` [CJB090, N-(4-(4-(2,3-dichlorophenyl)piperazin-1-yl)butyl)-4-(pyridin-2-yl)benzamide], for which the “intrinsic efficacy” value is reported as “partial agonist; also recorded: some activity”.
Take `O=C(NCCCCN1CCN(c2cccc(Cl)c2Cl)CC1)c1ccc2c(c1)Cc1ccccc1-2` [NGB 2904, reference compound]: the “intrinsic efficacy” value is “antagonist”.
